Entries after “also recorded” stand apart in the source; their conditions may differ. No end group written: not given here.
Key:
E. coli UB1005 = assay type: cell-based, Escherichia coli; conditions: mean of three; 16 to 20 hours at 35° C.; in µg/mL
S. typhimurium 14028S = assay type: cell-based, Salmonella typhimurium; conditions: mean of three; 16 to 20 hours at 35° C.; in µg/mL
P. aeruginosa H374 = assay type: cell-based, Pseudomonas aeruginosa; conditions: mean of three; 16 to 20 hours at 35° C.
[1] = system: human red blood cells (RBC); test: in vitro; assay type: cell-based; conditions: hemolytic assay, concentration at 50% hemolysis, 1 hour at 37° C.
collagen = test: Collagen stimulation, ELISA on fibroblast cell lines; assay type: cell-based
Experimental: Fibroblast cell lines were cultured under standard conditions and assayed for collagen and laminin using an ELISA system manufactured by Panvera (Madison, Wis.). Antibodies for collagen and laminin manufactured by Takara Shuzo Co., Ltd Japan. […] The other three peptides tested neither stimulated nor inhibited production (i.e. no effect was observed).

S. aureus (MRSA) = assay type: cell-based, Staphylococcus aureus; conditions: mean of three; 16 to 20 hours at 35° C.
S. epidermidis C621 = assay type: cell-based, Staphylococcus epidermidis; conditions: mean of three; 16 to 20 hours at 35° C.
S. pyogenes M76 = test: Antimicrobial assays II, NCCLS broth microdilution MIC; assay type: cell-based, Streptococcus pyogenes; conditions: mean of three; 16 to 20 hours at 35° C.
S. pyogenes ATCC19615 = test: as above; assay type: cell-based, Streptococcus pyogenes; conditions: mean of three, in µg/mL
S. pneumoniae C718 = test: as above; assay type: cell-based, Streptococcus pneumoniae; conditions: mean of three
S. pneumoniae C719 = test: as above; assay type: cell-based, Streptococcus pneumoniae; conditions: mean of three, in µg/mL
in vitro = assay type: cell-based, human; conditions: human, human red blood cells, pH 7, hemolytic assay, concentration at 50% hemolysis, 1 hour at 37° C.; read-out: LD50
[2] = system: hairless rat skin burn wound; test: In vivo wound healing, TCA chemically induced skin burn wound; conditions: for Epidermal thickening / Fibroblast cells in test area / Inflammatory response area / Leukocyte cells in test area / Wound closure: rat model, TCA burn treated by peptide; for Wound closure: 26 days
Description: The hairless rat was chosen as a suitable test model. Female hairless rats of 100 to 150 grams weight and 8 to 12 weeks age were used in the study.
As an alternative, 70% trichloroacetic (TCA) dissolved in 70% ethanol was employed to induce the dermal erosion patches. […] As the chemical burn agent, the TCA treatment inflicted on the rats far less trauma and mortality than occurred with the Phenol model.
The experimental Protocol procedure steps were as follows: • 1. The animal was anesthetized (40 mg/kg Phenobarbital). • 2. Color photographs of the animal's back (with six separate peels) were taken before each treatment and daily thereafter. • 3. Rat skin surface was prepared by wiping with 70% ethanol. Filter paper discs (1.1 cm diameter) were soaked in 70% TCA/ethanol. • 4. The discs were placed on the back of the hairless rat for 30 minutes [6 disks providing for 2 control (no peptide treatment) disks and 4 disks for peels to receive peptide treatment.] • 5. After a 30 minute burn the discs were removed. Twenty four hours later, different peptide solutions (1500 ppm in saline) were applied to four peels, and saline was applied to the two control peels. • 6. Peptide solutions (and saline for the controls) were applied to the six wounds with a soft brush each day thereafter. • 7. It took approximately one month for the wounds to heal (complete skin closure with stabilized epidermis), after which the animal was sacrificed. • 8. The treated skin was harvested, section stained with trichrome, and mounted on slides.
The percentage of wound closure for each peel (six sites) was measured each day until the animal was sacrificed. The percentage closure was determined by measuring on the animal photographs the area of the remaining scab relative to the area of the initial scar after the burn. These measurements were made by digitizing and analyzing the peels using the Sigma Plot ProScan 4 program.
This provided a measure of the post-TCA burn treatment of the inflammatory response in each peel site.
The extent of epidermal thickening (hyperkeratosis) at each site was also determined by measurement with the Sigma Plot program applied to the stained section slides of the various wound areas and the normal untreated skin (control) surrounding the peels. At magnifications of 100× to 320×, the microphotographs of the color slides provided a powerful tool for such quantification of the extent of hyperkeratosis evident in each peel.
Treatment of the section slides with selective stains produced identifiable evidence of the presence of both leukocyte and fibroblast cells in the wound areas. This was also quantified by the Sigma Plot program.
The above described animal model and protocols were employed in the testing of approximately 20 of the peptides listed in Table 48 (and other peptides for comparison) as preferred FLAK peptides for wound healing.

[3] = Solubility of peptides in sheep serum; assay type: physicochemical

MPKWKVFKKIEKVGRNIRNGIVKAGPAIAVLGEAKALG-NH2 [P12, reference compound]
E. coli UB1005 MIC (E. coli UB1005): 1
S. typhimurium 14028S MIC (S. typhimurium 14028S): 4
P. aeruginosa H374 MIC (P. aeruginosa H374): 8 µg/mL
LD50 [1]: > (> indicates greater than 1000)
Collagen stimulation (collagen): 0%

FALKALKKLKKALKKAL-NH2 [P153]
S. aureus (MRSA) MIC (S. aureus (MRSA)): 16 µg/mL
S. epidermidis C621 MIC (S. epidermidis C621): 4 µg/mL
S. pyogenes M76 MIC (S. pyogenes M76): 2 µg/mL
S. pyogenes MIC (S. pyogenes ATCC19615): 2
S. pneumoniae MIC (S. pneumoniae C718): 32 µg/mL
S. pneumoniae MIC (S. pneumoniae C719): 8
HC50 at 1 h (in vitro): 800 µg/mL
rate of wound closure ([2]; hairless rat, full wound closure at 26 days): small advantage in rate of wound closure over the other peptides and no peptide
ability to limit post-TCA burn inflammatory responses ([2]; hairless rat, peptide solutions 1500 ppm in saline, topical daily): superior in this respect
hyperkeratosis (epidermal thickening) ([2]; hairless rat, peptide solutions 1500 ppm in saline, topical daily, listed as SEQ ID NO:115): lowest evidence of hyperkeratosis (epidermal thickening); also recorded: substantially no hyperkeratosis as compared to the TCA burn untreated control
Epidermal thickening [2]: 25 % of control (TCA only)
Fibroblast cells in test area [2]: 350 % of normal skin
Inflammatory response area [2]: 7 % of healed scar
Leukocyte cells in test area [2]: 235 % of normal skin
Wound closure [2]: 99.1 % of initial wound
Solubility ([3]; sheep serum, […], 70% serum): Soluble
Solubility ([3]; sheep, 70% sheep serum): ≥ 1280 µg/mL
Collagen stimulation (collagen): 120%

FAVGLRAIKRALKKLRRGVRKVAKDL-NH2 [P157, reference compound]
S. aureus (MRSA) MIC (S. aureus (MRSA)): 32 µg/mL
S. epidermidis C621 MIC (S. epidermidis C621): 4 µg/mL
S. pyogenes M76 MIC (S. pyogenes M76): 8 µg/mL
S. pyogenes MIC (S. pyogenes ATCC19615): 8
S. pneumoniae MIC (S. pneumoniae C718): 128 µg/mL
S. pneumoniae MIC (S. pneumoniae C719): 16
E. coli UB1005 MIC (E. coli UB1005): 8
S. typhimurium 14028S MIC (S. typhimurium 14028S): 8
P. aeruginosa H374 MIC (P. aeruginosa H374): 8 µg/mL
HC50 at 1 h (in vitro): 850 µg/mL
Epidermal thickening [2]: 80 % of control (TCA only)
Fibroblast cells in test area [2]: 450 % of normal skin
Inflammatory response area [2]: 25 % of healed scar
Leukocyte cells in test area [2]: 265 % of normal skin
Wound closure [2]: 95.2 % of initial wound

Source: US20050209157A1, “Short bioactive peptides and methods for their use” (priority 2001, published 2005)
